# According to US11957684B2, “Treatment of heavy menstrual bleeding associated with uterine fibroids” (Sumitomo Pharma Switzerland GmbH, priority 2016, dated 2024):
# Where “and” joins values, the source holds several entries; their conditions need not be identical. Equal values may be shown once.
# Tests used:
# [1] = FIG. 7D
# Text: Table printed on a drawing sheet, FIG. 7D
# The patent's description of the figure: FIGS. 7A-F are tables of plasma PK parameters for Cohorts 8 to 10 in accordance with Example 4.
# [2] = test system: women with uterine fibroids; conditions: in vivo
# Method: The primary endpoint was the proportion of patients with a total Pictorial Blood Loss Assessment Chart (PBAC) score 4 of <10 from Week 6 to 12. Secondary endpoints included amenorrhea (PBAC score of 0), myoma and uterine volumes, hemoglobin (Hb), Numerical Rating Scale (NRS) score, Uterine Fibroid Symptom and Quality of Life (UFS-QOL) scores. Serum levels of luteinizing hormone (LH), follicle-stimulating hormone (FSH), estradiol (E2) and progesterone (P) were evaluated as pharmacodynamics endpoints. Safety endpoints included adverse events (AEs), vital signs, weight, 12-lead electrocardiogram (ECG), clinical laboratory tests, bone mineral density (BMD) and recovery of menstruation.
# The bone mineral density (BMD) of the second to fourth lumbar vertebra (L2 to L4) was measured using dual X-ray absorptiometry (DXA).
# [3] = FIG. 5B
# Text: Table printed on a drawing sheet, FIG. 5B
# The patent's description of the figure: FIGS. 5A-C are tables of plasma pharmacokinetic (PK) parameters for Cohorts 1 to 6 in accordance with Example 4.
# First reader's note: Plasma PK parameters by dose cohort; the series starts in FIG. 5A on another sheet and continues in FIG. 5C.
# [4] = clinical; conditions: female, human, in vivo
# Method: The study was a phase 1, double-blind, randomized, placebo-controlled, sequential-panel, ascending single- and multiple-dose study in healthy premenopausal women. Ten groups, each of 12 healthy premenopausal, adult women, participated in the study (Cohorts 1 to 10).
# Cohorts 1 to 6 were referred to as the single-rising dose (SRD) portion of the study, where cohorts were dosed in an escalating fashion. All subjects in a given cohort received their dose of study medication on the same day with the exception of subjects in Cohort 1, which were split into 2 subcohorts (Cohorts 1a and 1b). Dosing between these 2 subcohorts was separated by a minimum of 2 days. Dosing between subsequent cohorts was separated by a minimum of 7 days. The decision to proceed to Cohort 1b was made by the investigator after a minimum 48-hour evaluation of subjects in Cohort 1a. The decision to escalate the dose for the remaining cohorts in the SRD portion was based on review of the safety and pharmacokinetic data for all subjects in the previous cohort.
# Subjects were required to fast overnight (minimum 10 hours) prior to dosing and continued to fast for 4 hours following dosing. Subjects were given a menu for the dosing period to include 2 meals and an evening snack, each containing approximately 25% fat content. Six ascending dose groups were planned: 1.0 mg (Cohort 1), 5.0 mg (Cohort 2), 10 mg (Cohort 3), 20 mg (Cohort 4), 40 mg (Cohort 5), and 80 mg (Cohort 6). Subjects in each of Cohorts 1a, 1b, 2, 3, 4, 5 and 6 received drug dosing on a single day only.
# Cohorts 1 to 7 were each composed of 12 healthy premenopausal women aged 18 to 49 years, inclusive. […] In one sequence, dosing was under fasting conditions (minimum 10 hours). In the other sequence, dosing was approximately 30 minutes after the start of a high-fat, high calorie breakfast (provided approximately 1000 calories, with 50% of the calories from fat).
# Cohorts 8 to 10 were each composed of 12 healthy premenopausal women aged 18 to 45 years, inclusive. Cohorts 8 to 10 were referred to as the multiple-rising dose (MRD) portion of the study, where cohorts were dosed in escalating fashion. The MRD portion was not started until all the blinded safety and pharmacokinetic data from the SRD cohorts had been assessed by the investigator and the sponsor. […] Subjects received the first dose of study medication (Day 1) within 2 to 7 days following the onset of their menstrual cycle. Three ascending dose groups were planned: 10 mg once-daily (QD) (Cohort 8), 20 mg QD (Cohort 9), and 40 mg QD (Cohort 10). Subjects in each of Cohorts 8 to 10 received drug dosing on 14 days (Days 1 to 14).
# Subjects had to drink all of the water provided with the dose of study drug. Subjects were able to consume water ad libitum with the exception of 1 hour prior to and 1 hour after drug administration, not including the 240 mL of water taken with dosing.
# To assess the food effect, an analysis of variance was performed using Cohort 7 log(mean Cmax), log(area under the plasma drug concentration-time curves [mean plasam AUCs]) as dependent variable; treatment, sequence, period as fixed effects; and subject (seq) as a random effect.
# [5] = FIG. 6B
# Method: Table printed on a drawing sheet, FIG. 6B
# (§1) The patent's description of the figure: FIGS. 6A-C are tables of plasma PK parameters for Cohort 7 in accordance with Example 4.
# First reader's note: Part of a plasma PK table series (FIGS. 6A-C) for Cohort 7; each column is a fed or fasted 40 mg arm.
# [6] = FIG. 6A
# Method: Table printed on a drawing sheet, FIG. 6A
# as §1
# First reader's note: Plasma PK parameters for the fed and fasted 40 mg arms; the table continues in FIGS. 6B-C on other sheets.
# [7] = human, in vivo; cited from earlier work
SMILES,Tmax (hr) | Median [1],menstruation recovery period after the last dose [2] [days],Tmax (hr) | Median [3],CL renal [4] [mL/min],"Tmax, all subjects [4] [h]",half-life [4] [h],mean Fe (fraction of dose excreted in urine) [4],median Tmax [4] [h],half-life ([4]; 1 mg) [h],"Tmax ([4]; 80 mg, median Tmax) [h]",Lambda_z (1/hr) | Mean [5],T1/2 (hr) | Mean [5],Tmax (hr) | Median [5],AUC (O-inf) (ng*hr/mL) | Mean [6],AUC (O-tlqc) (ng*hr/mL) | Mean [6],bone mineral density decrease [7] [%],women with a decrease of more than 5.0% in bone mineral density [7]
"CONC(=O)Nc1ccc(-c2sc3c(c2CN(C)C)c(=O)n(-c2ccc(OC)nn2)c(=O)n3Cc2c(F)cccc2F)cc1 [Compound 1, N-(4-(1-(2,6-difluorobenzyl)-5-((dimethylamino)methyl)-3-(6-methoxy-3-pyridazinyl)-2,4-dioxo-1,2,3,4-tetrahydrothieno[2,3-d]pyrimidin-6-yl)phenyl)-N′-methoxyurea]",0.980 h and 1.480 h and 1.000 h,20 to 35,0.775 h and 1.015 h and 1.500 h,95 to 138,≤ 2,14 to 16,less than 3%,1 to 1.48,~6,4,0.04147 h⁻¹ and 0.04013 h⁻¹,16.9911 h and 17.6896 h,3.005 h and 3.980 h,63.437 ng·h/mL and 125.275 ng·h/mL,55.792 ng·h/mL and 110.782 ng·h/mL,,
"CCNC(=O)[C@@H]1CCCN1C(=O)[C@H](CCCNC(=N)N)NC(=O)[C@H](CC(C)C)NC(=O)[C@@H](CC(C)C)NC(=O)[C@H](Cc1ccc(O)cc1)NC(=O)[C@H](CO)NC(=O)[C@H](Cc1c[nH]c2ccccc12)NC(=O)[C@H](Cc1c[nH]cn1)NC(=O)[C@@H]1CCC(=O)N1 [leuprolide acetate, reference compound]",,,,,,,,,,,,,,,,−2.21±1.709,10 of 157
